Values of other authors in patent US8637310B2, “Use of a rock inhibitor to sustain primary human keratinocytes in a proliferative state” (The United States of America, as represented by the …, priority 2008, dated 2014).

Tested on: airway epithelial cells
Conditions: Moore et al. 2004; cited from earlier work

O=S(=O)(c1cccc2cnccc12)N1CCCNCC1 [HA 1077]
effect on airway epithelial cells: induces membrane ruffling, loss of actin stress fibers and apoptosis
